# In patent US20100260825A1, “Antifolates for the treatment of cardiovascular, inflammatory, neoplastic, autoimmune and related diseases in sublingual dosage units, film strips, or skin patches” (priority 2009, published 2010):
# How the values were obtained:
# [1] = Hypothetical ADMEP and Phase-I-II study of compound 1 (Example-3); type: in vivo, humans; conditions: 1.5 mg from the gut to the plasma three times a day (4.5 mg/24 hours)
# Procedure: Based on ADMEP (Absorption, Distribution, Metabolism, Excretion, Pharmacokinetics) studies conducted with analogous compound 1 in animals and humans during pre-clinical investigations and Phase-I-II clinical trials it was determined that an absorption of 1.0 mg of the drug from the gut to plasma three times a day from divided oral dosage units is optimal (3.0 mg/24 hours) in treating the antifolate responsive disease without causing significant toxicity. […] The bioavailability of this drug from the oral dosage unit used was only 10 percent as determined from a Phase-I clinical trial in healthy volunteers. […] The Bioavailability of this new medication was pH dependent due to solubility reasons and therefore it was possible that fluctuations in bioavailability might occur in certain patients as described in example-2. Thus in certain patients taking antacids or drugs such as certain prostaglandin to reduce acid secretion or other unknown factors the pH of the gut might increase to enhance the solubility and thereby increasing the bio-availability to the 15 to 20% range.
# [2] = system: SR; experiment: Growth inhibition of human tumor cells in culture, SR (Leukemia); type: cell-based
# Source text: (§1) The preceding data summarize the ability of compound 2 to inhibit 50% of the growth of selected tumor cells in culture. The values are expressed as Log10 GI50 values all of which are lower than 10^−8 M. In the same table a comparison is made of the respective values of TGI (Total Growth Inhibition) for 2 and methotrexate.
# [3] = system: SF 539; experiment: Growth inhibition of human tumor cells in culture, SF 539 (CNS Cancer); type: cell-based
# [4] = system: MCF-7; experiment: Growth inhibition of human tumor cells in culture, MCF-7 (Breast Cancer); type: cell-based
# Source text: as §1
# [5] = system: K562; experiment: Growth inhibition of human tumor cells in culture, K562 (Leukemia); type: cell-based
# Source text: as §1
# [6] = system: MOLT-4; experiment: Growth inhibition of human tumor cells in culture, MOLT-4 (Leukemia); type: cell-based
# Source text: as §1
# [7] = system: Human HCT-8 Colon Xenograft; experiment: Antitumor activity in nude mice bearing human HCT-8 colon xenograft; type: in vivo; conditions: i.v. push daily × 5
# [8] = system: selected tumor cells in culture; experiment: Growth inhibition of selected tumor cells in culture (summary); type: cell-based, Human; conditions: all selected tumor cell lines of the table; read-out: GI50 (inhibit 50% of the growth)
# Source text: as §1
# [9] = system: patients with rheumatoid arthritis; experiment: Clinical trial of M-Trex (Mobiletrex) in patients with rheumatoid arthritis, relative to methotrexate; type: in vivo, human; parameters: CRP: unit not given here; conditions: for CRP: plasma C-Reactive Protein
# Source text: In 2002; Castaneda and M. Gopal Nair conducted the clinical trial of a metabolism-blocked antifolate Mobileterx in patients with rheumatoid arthritis to evaluate its efficacy relative to the well-known antifolate drug methotrexate. In this pilot study [O. Castaneda and M. Gopal Nair. [The J. Rheumatology.
# [10] = system: CCRF-CEM; experiment: Growth inhibition of human tumor cells in culture, CCRF-CEM (Leukemia); type: cell-based
# Source text: as §1
# [11] = system: MCF7-ADR-RES; experiment: Growth inhibition of human tumor cells in culture, MCF7-ADR-RES (Breast Cancer); type: cell-based
# Source text: as §1
# [12] = system: RPMI 8226; experiment: Growth inhibition of human tumor cells in culture, RPMI 8226 (Leukemia); type: cell-based
# Source text: as §1
# [13] = Toxicity (maximum tolerated dose), i.v. push daily × 5 in nude mice; type: in vivo; conditions: i.v. push daily × 5, nude mice bearing HCT-8 xenograft
# [14] = oral dosage form; cited from earlier work
# [15] = cited from earlier work
# [16] = Bioavailability / absorption of oral methotrexate in patients; type: in vivo, human; conditions: oral dosage form, group of arthritic patients (Example-2)
# [17] = cited from earlier work; remark: listed apart in the source
# [18] = system: patients with rheumatoid arthritis; experiment: Conventional therapy of rheumatoid arthritis with methotrexate in patients; type: in vivo, human
# [19] = system: aldehyde oxidase; conditions: cited from earlier work
structure (smiles),measurement,setting,value
"C=C(CC(NC(=O)c1ccc(CCc2ccc3nc(N)nc(N)c3c2)cc1)C(=O)O)C(=O)O (stereo not shown) [Compound 1, 4′-Methylene-5,8,10-trideazaaminopterin]",toxicity,[1],unacceptable GI and bone marrow toxicity
C=C(CC(NC(=O)c1ccc(CCc2ccc3nc(N)nc(N)c3c2)cc1)C(=O)O)C(=O)O (stereo not shown) [Compound 2],TGI (Total Growth Inhibition),[2],<−8.00
same,Log10 GI50,[2]; Log10 of molar concentration,<−8.00
same,TGI (Total Growth Inhibition),[3],−6.3
same,Log10 GI50,[3]; Log10 of molar concentration,<−8.00
same,TGI (Total Growth Inhibition),[4],−6.32
same,Log10 GI50,[4]; Log10 of molar concentration,<−8.00
same,TGI (Total Growth Inhibition),[5],<−8.00
same,Log10 GI50,[5]; Log10 of molar concentration,<−8.00
same,TGI (Total Growth Inhibition),[6],−7.40
same,Log10 GI50,[6]; Log10 of molar concentration,<−8.00
same,MTGI (%) Maximum Tumor Growth Inhibition (% of control),[7]; 4.0 mg/kg/day (MTD),91.4 ± 2.2%
same,T/C %,[7]; 4.0 mg/kg/day (MTD),623.08%
same,TD (days) Tumor Doubling Time,[7]; 4.0 mg/kg/day (MTD),16.2 ± 3.2 days
same,GI50,[8],< 10 nM
same,ESR,[9]; 4 wks,52.7
same,HAQ,[9]; 4 wks,1.8
same,Pa. GA,[9]; 4 wks,6.0
same,Ph. GA,[9]; 4 wks,6.2
same,S. Joints,[9]; 4 wks,5.6
same,T. Joints,[9]; 4 wks,10.2
same,Pain,"[9]; 4 wks of treatment, rheumatoid arthritis patients",4.1
same,CRP,[9]; 4 wks,22.1
same,ESR,[9]; 8 wks,32.7
same,HAQ,[9]; 8 wks,1.6
same,Pa. GA,[9]; 8 wks,6.0
same,Pain,[9]; 8 wks,2.8
same,Ph. GA,[9]; 8 wks,5.0
same,S. Joints,[9]; 8 wks,3.5
same,T. Joints,[9]; 8 wks,7.3
same,CRP,[9]; 8 wks,20.7
same,ESR,[9]; 12 wks,38.3
same,HAQ,[9]; 12 wks,1.4
same,Pa. GA,[9]; 12 wks,5.0
same,Pain,[9]; 12 wks,2.2
same,Ph. GA,[9]; 12 wks,4.5
same,S. Joints,[9]; 12 wks,3.0
same,T. Joints,[9]; 12 wks,5.8
same,CRP,[9]; 12 wks,17.7
same,ESR,[9]; 16 wks,38.6
same,HAQ,[9]; 16 wks,1.4
same,Pa. GA,[9]; 16 wks,3.0
same,Pain,[9]; 16 wks,1.8
same,Ph. GA,[9]; 16 wks,3.0
same,S. Joints,[9]; 16 wks,2.9
same,T. Joints,[9]; 16 wks,5.8
same,CRP,[9]; 16 wks,13.6
same,plasma concentration of C-Reactive Protein (CRP),[9]; as the treatment progressed,consistently decreased
same,TGI (Total Growth Inhibition),[10],<−8.00
same,Log10 GI50,[10]; Log10 of molar concentration,<−8.00
same,TGI (Total Growth Inhibition),[11],−7.26
same,Log10 GI50,[11]; Log10 of molar concentration,<−8.00
same,TGI (Total Growth Inhibition),[12],−7.44
same,Log10 GI50,[12]; Log10 of molar concentration,<−8.00
same,Maximum Tolerated dose,[13],M-Trex (4.0 mg/kg/day)
"CN(Cc1cnc2nc(N)nc(N)c2n1)c1ccc(C(=O)N[C@@H](CCC(=O)O)C(=O)O)cc1 [Methotrexate, reference compound]",TGI (Total Growth Inhibition),[2],−3.50
same,bioavailability,[14],20-80%
same,adverse effects of overdose,"[15]; 60 mg weekly instead of 15 mg weekly, oral tablets, rheumatoid arthritis patient","odynophagia, dysphagia and oesophagitis"
same,adverse effects of dosing error,[15]; weekly dose taken in error daily or on several days each week,"severe unwanted effects, including neutropenia, hepatotoxicity and bone marrow suppression"
same,TGI (Total Growth Inhibition),[3],−3.66
same,absorption,[16],20%
same,TGI (Total Growth Inhibition),[5],−3.30
same,TGI (Total Growth Inhibition),[6],−3.55
same,solubility,[17],pH dependent
same,MTGI (%) Maximum Tumor Growth Inhibition (% of control),[7]; 1.0 mg/kg/day (MTD),30.0 ± 9.0%
same,T/C %,[7]; 1.0 mg/kg/day (MTD),176.92%
same,TD (days) Tumor Doubling Time,[7]; 1.0 mg/kg/day (MTD),4.6 ± 0.6 days
same,TGI (Total Growth Inhibition),[10],−3.77
same,non-responders,[18]; certain patient populations,up to 40%
same,drug related toxicity,[18]; some patients,significant drug related toxicity including elevation of liver enzymes
same,TGI (Total Growth Inhibition),[12],−3.66
same,MTD at 5 days,"[13]; mouse, in vivo, iv",1 mg/kg/day
same,aldehyde oxidase mediated oxidative deactivation,[19],efficiently converted to its corresponding 7-hydroxymethotrexate
